Assay results: patent US6936736B2, “Amide derivative” (Sumitomo Manufacturing Company Limited, priority 1997, dated 2005)

Assays:
[1] = system: constant white light-induced retinal damage; test: Experiment 2: protective effect against constant white light-induced retinal damage (ERG a-wave), administration of eye drops; format: in vivo; details: rats, 50 μl per once to both eyes, at 0, 3, 6, 9 and 24 hours
Source text: (§1) Male Wistar rats (7 weeks old, Charles River Japan Inc.) were purchased and maintained in cyclic light/dark environment (8:00-20:00/light term) for one week, and then placed within the apparatus for constant white light exposure for two days. The constant white light exposure apparatus is a covered breeding box of 1020 mm in length, 425 mm in width, 520 mm in height, which is made of acryl boards and of which all inner side are covered with mirrors. Light was continuously irradiated all the day long (24 hours) using white fluorescent lamp attached to the ceiling of the apparatus. The average illuminance in the apparatus was 174.2 foot candle. After two days in the apparatus, the rats were moved to a darkroom and dark adapted for 1-4 hours. The rats were anesthetized with pentobarbital and placed in a stereotaxic frame. After topical mydriatica was given and electrodes were put on corneal surface, center of the forehead and the lower part of the lobe, the response in active potential of retina to the flash stimulation with fixed energy was determined from the recorded ERG (electroretinogram). The damage of retina was evaluated by the decrease in the amplitude of ERG a-wave which originated from retinal outer nuclear cells (photoreceptors). Test compounds were intraperitoneally injected just before placing the rats into the constant light exposure apparatus and at the same time on the next day to investigate its protective effect.
(§2) Pharmacological Effect Against Constant White Light-induced Retinal Damage
(§3) The protective effect of the compound of Examples by administration of eye drops was tested by the same method as Experiment 1. The tested compounds were administered immediately before rats were placed within the apparatus for constant white light exposure. Further, the eye drops were administered 3, 6, 9 and 24 hours after and the effect was evaluated.
The compounds of the present invention were dissolved in 0.5% aqueous methylcellulose (MC) solution and each 50 μl of the solution per once was dropped to both eyes of 5 rats, according to the method of Experiment 1. In the same way, 0.5% MC solution was dropped to eyes of the rats in MC group.
The rats maintained in 12 hours cyclic light/dark environment were used for normal control group.

[2] = system: constant white light-induced retinal damage; test: Experiment 1: protective effect against constant white light-induced retinal damage (ERG a-wave), intraperitoneal administration; format: in vivo, Male Wistar rats; details: rats, 50 mg/kg intraperitoneally twice, in 0.5% methylcellulose; ERG a-wave amplitude after two days constant light
Source text: Retinal outer nuclear cells have been known to be degenerated by the constant white light exposure to albino rats (L. M. Rapp, et al., New York: Plenum, 135 (1980)). Effectiveness of the compounds of formula 1, 2 or 3 or pharmaceutical acceptable salts thereof can be evaluated by their protective action against constant light exposure-induced retinal degeneration in rats. The present invention is embodied by the following experiment.
as §2, §1
According to the experimental procedure described above, each test compound in the present invention, which was suspended or dissolved in 0.5% methylcellulose (MC) solution, was intraperitoneally administered twice to three rats in a group at the dose of 50 mg/kg. In the same way, 0.5% MC solution was intraperitoneally administered to the rats in MC group. The rats maintained in 12 hours cyclic light/dark environment were used for normal control group. The protection by the compounds against the retinal damage was represented as % recovery value, and the results were shown in Table 1. % recovery=(x−z)÷(y−z)×100 • x : a-wave amplitude in test compound group • y : a-wave amplitude in normal control group • z : a-wave amplitude in MC group

[3] = system: constant white light-induced retinal damage; test: Experiment 3: protective effect against constant white light-induced retinal damage (ERG a-wave), eye drops, several concentrations; format: in vivo; details: rats, 50 μl per once to both eyes
Source text: as §1, §3, §2
The compound of Example 50 was further tested by the same method as Experiment 2.
The compound of the present invention was dissolved in 0.5% aqueous methylcellulose (MC) solution and each 50 μl of the solution per once was dropped to both eyes of 5 rats, according to the method of Experiment 1. In the same way, 0.5% MC solution was dropped to eyes of the rats in MC group. The rats maintained in 12 hours cyclic light/dark environment were used for normal control group.

CC(C)(C)NC(=O)c1ccc(F)cc1F [Example 1, N-t-Butyl-2,4-difluorobenzamide]
% recovery (Mean ± S.E.M.) ([1]; eye drops 2 mg/ml in 0.5% MC): 11.6 ± 2.6%
% recovery (Mean ± S.E.M.) [2]: 95.5 ± 12.3%

CC(C)(C)NC(=O)c1ccc(F)cc1 [Example 6, N-t-Butyl-4-fluorobenzamide]
% recovery (Mean ± S.E.M.) [2]: 80.1 ± 8.9%

CC(C)(C)NC(=O)c1cc(F)ccc1F [Example 25, N-t-Butyl-2,5-difluorobenzamide]
% recovery (Mean ± S.E.M.) ([1]; eye drops 1.2 mg/ml in 0.5% MC): 16.2 ± 3.2%

CC(C)(CO)NC(=O)c1ccc(F)cc1F [Example 27, N-(2-Hydroxy-1,1-dimethylethyl)-2,4-difluorobenzamide]
% recovery (Mean ± S.E.M.) [2]: 45.7 ± 10.1%

CC(C)(C)NC(=O)c1ccc(Cl)cn1 [Example 40, N-t-Butyl-5-chloro-2-pyridinecarboxamide]
% recovery (Mean ± S.E.M.) [2]: 82.3 ± 25.6%

CC(C)(CO)NC(=O)c1ccc(Cl)cn1 [Example 47, N-(2-Hydroxy-1,1-dimethylethyl)-5-chloro-2-pyridinecarboxamide]
% recovery (Mean ± S.E.M.) [2]: 58.2 ± 2.7%

CC(C)(C)NC(=O)c1ccccc1F [Example 48, N-t-butyl-2-fluorobenzamide]
% recovery (Mean ± S.E.M.) ([1]; eye drops 3.2 mg/ml in 0.5% MC): 15.0 ± 3.7%

CC(C)(C)NC(=O)c1ccc(Br)cc1F [Example 49, N-t-butyl-4-bromo-2-fluorobenzamide]
% recovery (Mean ± S.E.M.) ([1]; eye drops 0.4 mg/ml in 0.5% MC): 5.1 ± 1.8%

CC(C)(C)NC(=O)c1cccc[n+]1[O-] [Example 50, N-t-butyl-1-oxide-2-pyridinecarboxamide]
% recovery (Mean ± S.E.M.) ([3]; eye drops 3 mg/ml in 0.5% MC): 2.3 ± 3.8%
% recovery (Mean ± S.E.M.) ([3]; eye drops 10 mg/ml in 0.5% MC): 6.9 ± 5.7%
% recovery (Mean ± S.E.M.) ([3]; eye drops 30 mg/ml in 0.5% MC, ** p < 0.01 vs solvent only (Dunnett)): 17.4 ± 3.9** %
% recovery (Mean ± S.E.M.) ([3]; eye drops 60 mg/ml in 0.5% MC, ** p < 0.01 vs solvent only (Dunnett)): 35.6 ± 2.7** %
% recovery (Mean ± S.E.M.) ([1]; eye drops 10 mg/ml in 0.5% MC): 19.1 ± 7.5%
